From patent US10935541B2 (priority 2014, dated 2021) come the findings set out here.

The test system of assay [1] is myotubes from muscle-only cultures. Format: cell-based, rat. Here is the method:
Muscle-only control cultures were established in parallel to all co-cultures examined. These cultures were subjected to identical culture parameters minus the plating of ventral horn cells after 7 days in vitro.
(§1) Myotube contraction was recorded and characterized via measurement of cantilever deflection using an automated system. In this system, cantilevers supporting co-cultured myotubes and motoneurons were inserted into a transparent culture dish fitted into a modified upright Olympus BX51WI electrophysiology microscope. The culture dish was filled with NBActiv4 medium (+10 mM HEPES) to maintain the cells during the analysis. A heated culture dish system (Delta T, Bioptechs, Butler, Pa.) was incorporated into the stage to maintain the culture at 37° C. throughout the analysis.
(§2) Broad field electrical stimulation was first used to verify the contractile ability of the cultured myotubes. Cultures were subjected to a 3 V, 40 ms pulse at a frequency of 1 Hz, and the cantilevers were scanned for 5 seconds each to identify those with active myotubes. Across all experimental conditions, a successful contractile response was taken as any peak equal to or larger than 0.1 V.
(§3) The electrical stimulus was then switched off and the active cantilevers scanned again in order to observe the rate of spontaneous contraction. This condition was followed by bath application of 200 μM glutamate to stimulate motoneuron firing, and the cantilevers were again scanned for evidence of contractile activity. A second application of glutamate was made following addition of 12.5 μM D-tubocurarine (Sigma-Aldrich) to block neuromuscular transmission. The cantilevers were again scanned for contractile activity following this treatment. Finally, cantilevers were subjected to the same broad-field electrical stimulation as was used initially and scanned for contractile activity to verify that the treatments had not destroyed the contractile capability of the myotube or caused the cells to detach.
(§4) Conversion of photo-detector readings to cantilever deflection and myotube force were performed using a modified Stoney's equation (Wilson et al., 2010). Briefly, the photo-detector measured the changes in cantilever bending-induced laser deflection (reported in Volts) from which the deflection of the cantilever tip was calculated. Equations (1) and (2) are restated equations (see, e.g., Wilson et al., 2010) for cantilever tip deflection (δ) and stress produced by the myotube, assuming a uniform thick film the full width of the cantilever (σc). The system parameters used in these equations were the system-specific coefficient relating voltage to laser position on the photo-detector (Cdetector), the angle of the laser and detector relative to the plane of the cantilever (A), the elastic modulus of silicon (ESi), the thicknesses of the cantilever (tSi) and myotube (tf), poison's ratio of silicon (vSi), cantilever length (L), path length of laser from cantilever tip to detector (P), and the width of the cantilever (wsi).
Differences in force per contraction and in contraction frequency were measured for the three conditions: (i) Spontaneous activity, (ii) 200 μM glutamate, and (iii) 12.5 μM D-tubocurarine following glutamate. The differences were evaluated statistically using one-way repeated measures ANOVA (α=0.05) both for the muscle-only controls and for the motoneuron-myotube co-cultures. […]

The subject of assay [2] is co-cultures of primary rat muscle cells and motoneurons. Format: cell-based. To be noted: for average contraction frequency: co-culture 13 days in vitro, n=10, spontaneous 1.4 Hz; for contractile force (average peak force): mean ± SEM. Here is the method: as §1
The automated system consisted of a Helium Neon laser beam that was automatically scanned across the tips of each cantilever at a 30° angle relative to the plane of the cantilever. A quadrant photo-detector module was also moved to detect the reflected beam. Four stepper motor-driven linear actuators attached to XY translational stages controlled the positions of the laser and photo-detector, with each unit mounted to an XY stage and requiring an actuator for the X and Y translation directions. A temperature-controlled stage was incorporated into the unit to maintain the cells at physiological temperature. Stainless steel electrodes were mounted inside the stage dish at a separation distance of 15 mm. To allow the system to produce field stimulation of myotubes when appropriate, the electrodes were connected to a pulse generator (A-M systems, Sequim, Wash.), which was capable of producing field stimulation pulses of varying intensity, frequency, and waveform.
as §2, §3, §4
Differences in force per contraction and in contraction frequency were measured for the three conditions: (i) Spontaneous activity, (ii) 200 μM glutamate, and (iii) 12.5 μM D-tubocurarine following glutamate. […]

For another assay, the system named is ventral horn motoneurons. The assay is described as follows: Whole-cell patch-clamp recording of cultured motoneurons, response to glutamate. The class given is cell-based, rat. An excerpt: After 11-13 days in vitro, electrophysiological properties of ventral horn motoneurons were investigated using whole-cell patch-clamp recording techniques. Glass coverslips with cultured ventral horn cells were transferred to a recording chamber located on the stage of a Zeiss Axioscope 2FS Plus upright microscope. Motoneurons were identified visually under an infrared differential interference contrast (DIC) video-microscope. The largest multipolar cells (15-20 μm diameters) with bright somas were identified as motoneurons. Borosilicate glass patch pipettes (BF 150-86-10; Sutter Instrument Company) with a resistance of 6-10 MΩ were made using a Sutter P97 pipette puller (Sutter Instrument Company). Current-clamp and voltage-clamp recordings were made using a Multiclamp 700 A amplifier (Axon instruments). The pipette (intracellular) solution contained 1 mM EGTA, 140 mM K-gluconate, 2 mM MgCl2, 2 mM Na2ATP and 10 mM HEPES (pH 7.2). NBActiv4 medium plus 10 mM HEPES (pH 7.2) was used as the extracellular solution.
After the formation of a giga-ohm seal and membrane puncture, the cell capacitance was compensated. Signals were filtered at 3 kHz and sampled at 20 kHz using a Digidata 1322A interface (Axon Instruments). Data recording and analysis were performed with pClamp8 software (Axon Instruments). Membrane potentials were corrected by subtraction of a 15 mV tip potential, which was calculated using Axon's pClamp8 program. Depolarization-evoked inward and outward currents were examined in voltage-clamp mode. Depolarization-evoked action potentials were examined in current-clamp mode and induced using 1 second depolarizing current injections from a −70 mV holding potential. Action potentials elicited in response to 200 μM glutamate (an excitatory neurotransmitter) (Sigma-Aldrich) injection into the extracellular solution were likewise measured in current-clamp mode from a −70 mV holding potential.
Patch-clamp recordings verified the ability of the co-culture protocol to promote the maturation of electrically-active motoneurons after 11-13 days in culture. […]
For orientation: The patch-clamp technique gives a direct electrical read-out from membranes.

A further assay relates to neuromuscular junction. The class given is cell-based.

Entries after “also recorded” stand apart in the source; their conditions may differ. Where two headings read alike, the source gives them in different places.

Consider `COc1cc2c3cc1Oc1cc(ccc1O)C[C@@H]1c4c(cc(OC)c(O)c4Oc4ccc(cc4)C[C@@H]3N(C)CC2)CC[N+]1(C)C` [D-tubocurarine], for which, in assay [1] (12.5 μM D-tubocurarine, all control cases), the “inhibitory effect on myotube contraction” value is “no inhibitory effect on myotube contraction”. For the same molecule, the “contraction frequency compared with frequency in response to glutamate” value in assay [1] (12.5 μM D-tubocurarine, muscle-only controls, p=0.04) is “significant increase in contraction frequency”. Also, the average contraction frequency in assay [2] (12.5 μM D-tubocurarine with glutamate) came out at 1.4 Hz. Further, the “contractile force compared with force in response to glutamate” value in assay [2] (12.5 μM D-tubocurarine, co-culture) is “not significantly different”. In addition, the “contractile force (average peak force)” value in assay [2] (after addition of 12.5 μM D-tubocurarine, co-culture) was 45.1 nN. For the same molecule, the “effect on glutamate-increased contraction frequency” value in assay [2] (all cases of glutamate increasing contraction frequency by at least 2 Hz) is “returned the contraction frequency to spontaneous levels”.
For the molecule `N[C@@H](CCC(=O)O)C(=O)O` [glutamate], in assay [1] (200 μM glutamate, muscle-only controls), the “largest increase in contraction frequency in response to glutamate” value is recorded as 0.85 Hz. Besides, the “effect on contraction frequency” value in assay [1] (200 μM glutamate, muscle-only cultures, n=10) is given as “did not significantly alter contraction frequency”. In addition, the “effect on force generated by contracting myotubes” value in assay [1] (glutamate, muscle-only controls, n=7, p=0.24) is recorded as “no effect”; in assay [2] (glutamate, co-culture, n=10, p=0.60), “no significant effect”. Also, the average contraction frequency in assay [2] (200 μM glutamate) amounted to 4.9 Hz. In addition, the “contractile force (average peak force)” value in assay [2] (glutamate-evoked contractions, 200 μM, co-culture, spontaneous 106.0 nN) came out at 67.4 nN. Moreover, the “duration of motoneuron activity in response to glutamate” value in the assay on ventral horn motoneurons (200 μM glutamate bath application) was “roughly 2.5 minutes”. For the same molecule, the “response of motoneurons to bath application (membrane depolarization, action potentials)” value with ventral horn motoneurons (200 μM glutamate, gap-free current-clamp, -70 mV holding potential, n=17) is “depolarization of the membrane and elicited action potentials in all motoneurons examined”. In addition, in the assay on ventral horn motoneurons (second application of glutamate, n=3), the “response of patched motoneurons to a second application” value is given as “again depolarized the motoneuron membrane in all cells examined”.
As for α-Bungarotoxin, in the assay with neuromuscular junction, the “effect on myotube contractions, stimulation from first chamber (myotube side)” value is reported as “did not inhibit contraction; also recorded: contractions are still possible”; the “effect on myotube contractions, stimulation from second chamber (motoneuron side)” value was “less and less responsive; also recorded: decreased contraction of the myotubes”.
